Assay results taken from patent publication US9018207B2, “Method of treatment or prophylaxis” (Spinifex Pharmaceuticals Pty Ltd, priority 2004, dated 2015).
“And” between values parts separate entries of the source, which are not always exact repeats. Equal values may be shown once. “Also recorded” adds a separate entry of the source.

How the values were obtained:
Assay type in all cases: in vivo, Sprague-Dawley (SD) rats
[1] = tested on: STZ-diabetic rats; assay: Relief of tactile allodynia (von Frey paw withdrawal thresholds) in the hindpaws of STZ-diabetic rats (model of PDN); conditions: for relief of tactile allodynia (summary in discussion): STZ-diabetic rat model of PDN; for relief of tactile allodynia (summary in discussion) / onset of anti-allodynia (summary in discussion): single i.p. bolus doses; for reversal of tactile allodynia in the hindpaws: i.p., higher doses tested
Protocol: Adult male SD rats were anaesthetized in a manner similar to that described above, to facilitate insertion of a polyethylene cannula (previously filled with 0.1 ml of sterile saline) into the right common jugular vein. Jugular vein cannulae were tested for correct placement by the withdrawal of a small amount of blood. Diabetes was induced following an acute i.v. injection of streptozotocin (STZ) (80 mg/kg) in 0.1 M citrate buffer (pH 4.5) into the jugular vein. Diabetes was confirmed by monitoring the water intake and blood glucose concentration in individual rats. Blood glucose was monitored using either (Glucostix™) or a Precision QID™ test kit.
Consistent with previous studies in the literature (Calcutt et al., 1996, Pain. 68(2-3):293-9), rats that drank more than 100 mL of water per day by 10 days post-STZ injection, were classified as diabetic, and only rats with blood glucose concentrations exceeding 15 mM were included in the subsequent experiments. By comparison, the water intake of control non-diabetic rats was approximately 20 mL per day and blood glucose concentrations were in the range 5-6 mM, consistent with the literature (Calcutt et al., 1996, supra).
Whilst under light anaesthesia with CO2/O2 (50:50%), CCI-rats or STZ-diabetic rats received a single bolus injection (200 μL) of one AT2 receptor antagonist (PD123,319 or L-159,686) by the intravenous (i.v.) or the intraperitoneal (i.p.) route, using a 250 μL Hamilton syringe. The test compounds were administered to CCI-rats at 14 days after CCI-surgery and to STZ-diabetic rats at approximately 8-wks after the induction of diabetes with STZ. Relief of tactile (mechanical) allodynia, the defining symptom of neuropathic pain, by each of the test agents, PD123,319 or L-159,686, was quantified using calibrated von Frey filaments as described below.
Tactile allodynia was quantified using calibrated von Frey filaments. Rats were placed in wire mesh testing cages (20 cm×20 cm×20 cm) and allowed to acclimatise for approximately […] Von Frey filaments were used to determine the lowest mechanical threshold required for a brisk paw withdrawal reflex. Briefly, the filament that produced the lowest force was applied to the plantar surface of the hindpaw until the filament buckled slightly. Absence of a response after 5 s prompted use of the next filament in an ascending sequence. Filaments used produced a buckling weight of 2, 4, 6, 8, 10, 12, 14, 16, 18 and 20 g and these were calibrated prior to each testing session.
For CCI-rats, baseline von Frey paw withdrawal thresholds (PWTs) were quantified prior to CCI-surgery, and at 14 days post-surgery immediately prior to drug administration. For STZ-diabetic rats, baseline von Frey PWT values were determined prior to the induction of diabetes with STZ and at 1-2 weekly intervals thereafter for 8 weeks to document the temporal development of tactile allodynia. For all rats, baseline PWTs were the mean of three readings taken, 5 min apart before drug administration and were determined separately for each hindpaw. After administration of each test compound, von Frey PWTs were determined at the following post-dosing times: 0.08, 0.25, 0.5, 0.75, 1, 1.25, 1.5, 2 and 3 h.
Paw withdrawal thresholds (PWTs; g) were plotted against time to construct response versus time curves for each of the two test compounds (PD123,319 and L-159,686) for each dose and dosing route.
Whilst adult male SD rats were anaesthetized with 3% isoflurane: 97% oxygen, a short polyethylene cannula (0.4 mm ID, 0.8 mm OD) was inserted into the jugular vein to facilitate the intravenous (i.v) administration of a single dose of STZ (75 mg/kg). After removal of the i.v. cannula, the jugular vein was tied off, the wound was closed and topical bupivacaine was applied. Rats received benzylpenicillin (60 mg s.c.) to prevent infection and were kept warm during surgical recovery. […]

[2] = tested on: rats with a chronic constriction injury (CCI) of the sciatic nerve; assay: Antinociception (von Frey paw withdrawal thresholds) in the contralateral hindpaw of CCI-rats
Protocol: (§1) Adult male Sprague-Dawley (SD) rats were anaesthetized with Zoletil 100® (0.09 ml/200 g) and Xylazil-20™ (0.1 mL/200 g) administered by intraperitoneal (i.p.) injection, and a chronic constriction injury (CCI) of the sciatic nerve was produced according to the method of Bennett and Xie (1988). Briefly, the left common sciatic nerve was exposed at mid-thigh level by blunt dissection through the biceps femoris. Proximal to the trifurcation, 10 mm of nerve was freed of adhering tissue and four loose ligatures (3.0 silk) were tied around the sciatic nerve 1 mm apart). The incision was closed in layers. After surgery, rats received benzylpenicillin (60 mg s.c.) to prevent infection and were kept warm during surgical recovery. Rats were housed singly for 10-14 days prior to AT2 receptor antagonist or vehicle (normal saline) administration. After CCI-surgery, rats were inspected daily with regard to posture of the affected hindpaw, exploring behavior, body weight and water intake, and any signs of autotomy. Whilst under light anaesthesia with CO2/O2 (50:50%), CCI-rats or STZ-diabetic rats received a single bolus injection (200 μL) of one AT2 receptor antagonist (PD123,319 or L-159,686) by the intravenous (i.v.) or the intraperitoneal (i.p.) route, using a 250 μL Hamilton syringe. The test compounds were administered to CCI-rats at 14 days after CCI-surgery and to STZ-diabetic rats at approximately 8-wks after the induction of diabetes with STZ. Relief of tactile (mechanical) allodynia, the defining symptom of neuropathic pain, by each of the test agents, PD123,319 or L-159,686, was quantified using calibrated von Frey filaments as described below. Tactile allodynia was quantified using calibrated von Frey filaments. Rats were placed in wire mesh testing cages (20 cm×20 cm×20 cm) and allowed to acclimatise for approximately […] Von Frey filaments were used to determine the lowest mechanical threshold required for a brisk paw withdrawal reflex. Briefly, the filament that produced the lowest force was applied to the plantar surface of the hindpaw until the filament buckled slightly. Absence of a response after 5 s prompted use of the next filament in an ascending sequence. Filaments used produced a buckling weight of 2, 4, 6, 8, 10, 12, 14, 16, 18 and 20 g and these were calibrated prior to each testing session. […] For CCI-rats, baseline von Frey paw withdrawal thresholds (PWTs) were quantified prior to CCI-surgery, and at 14 days post-surgery immediately prior to drug administration. For STZ-diabetic rats, baseline von Frey PWT values were determined prior to the induction of diabetes with STZ and at 1-2 weekly intervals thereafter for 8 weeks to document the temporal development of tactile allodynia. For all rats, baseline PWTs were the mean of three readings taken, 5 min apart before drug administration and were determined separately for each hindpaw. After administration of each test compound, von Frey PWTs were determined at the following post-dosing times: 0.08, 0.25, 0.5, 0.75, 1, 1.25, 1.5, 2 and 3 h. Paw withdrawal thresholds (PWTs; g) were plotted against time to construct response versus time curves for each of the two test compounds (PD123,319 and L-159,686) for each dose and dosing route. Whilst adult male SD rats were anaesthetized with 3% isoflurane: 97% oxygen, four loose ligatures were tied around one sciatic nerve to produce a unilateral chronic constriction injury (CCI) according to the method of Bennett and Xie (1988, Pain 33: 87-107). […]

[3] = tested on: rats with a chronic constriction injury (CCI) of the sciatic nerve; assay: Relief of tactile allodynia (von Frey paw withdrawal thresholds) in the ipsilateral (injured) hindpaw of CCI-rats; conditions: for doses required to produce significant relief of tactile allodynia in CCI-rats compared with STZ-diabetic rats: CCI-rats vs STZ-diabetic rats
Protocol: as §1, with “87-107). Briefly, the left common sciatic nerve was exposed at mid-thigh level by blunt dissection through the biceps femoris. Proximal to the trifurcation, 10 mm of nerve was freed of adhering tissue and four loose ligatures (3.0 silk) were tied around the sciatic nerve 1 mm apart). The incision was closed in layers. After surgery, rats received benzylpenicillin (60 mg s.c.) to prevent infection and were kept warm during surgical recovery.” for “87-107).”

[4] = tested on: rats with a chronic constriction injury (CCI) of the sciatic nerve; assay: as above; conditions: oral bolus 1 mg/kg vs same dose i.p.
[5] = STZ-diabetic rats, sodium salt, i.p. bolus 0.0003 to 3 mg/kg
[6] = CCI-rats, sodium salt, i.p. bolus 0.003 to 10 mg/kg
[7] = STZ-diabetic rats, i.p. bolus 0.001 to 3.0 μg/kg
[8] = CCI-rats, i.p. bolus 0.03 to 3 mg/kg

Which “relief of tactile allodynia (summary in discussion)” value [1] does the source give for `CCc1nc2ccc(N(Cc3ccccc3)C(=O)c3cccs3)cc2c(=O)n1Cc1ccc(-c2ccccc2-c2nn[nH]n2)cc1.[Na]` [L-161,638 (sodium salt), thiophene-2-carboxylic Acid benzyl-{2-ethyl-4-oxo-3-[2′-(2H-tetrazol-5yl)-biphenyl-4-ylmethyl]-3,4-dihydro-quinazolin-6-yl}-amide Sodium Salt] here?
The value was “potent relief of tactile allodynia”.

What about the “reversal of tactile allodynia in the hindpaws” value ([1]; STZ-diabetic rats) of the same molecule?
Its value is “fully reversed”.

And the “onset of anti-allodynia (summary in discussion)” value ([1]; STZ-diabetic rats)?
Its value is “relatively rapid onset”.

And the duration of action ([1]; STZ-diabetic rats, sodium salt, i.p. 3 mg/kg dose)?
Its duration of action is greater than 3 h.

And the “onset of relief of tactile allodynia” value [1, 5]?
Its value is “rapid onset”.

What about the “relief of tactile allodynia” value [1, 5] of the same molecule?
The value was “dose-dependent relief of tactile allodynia”.

And the “time of peak effects post-dosing” value [1, 5]?
The value was 0.25 to 0.75 h.

What about the “relief of tactile allodynia” value ([1]; STZ-diabetic rats, sodium salt, i.p. bolus 0.0003 to 3 mg/kg, listed as L-161,638, Sodium Salt) of the same molecule?
The value was “relief of tactile allodynia”.

What about the duration of action ([1]; STZ-diabetic rats, sodium salt, i.p. doses in the range 0.0003-0.03 μg/kg) of the same molecule?
The duration of action was 3 h.

And the “antinociception in the contralateral hindpaw” value (shortened to “antinociception”) ([2]; sodium salt, i.p. doses up to 10 mg/kg)?
Its value is “insignificant antinociception”.

What about the “doses required to produce significant relief of tactile allodynia in CCI-rats compared with STZ-diabetic rats” value [3] of the same molecule?
Its value is “considerably larger doses”.

What about the “anti-allodynia (relief of tactile allodynia) in the ipsilateral hindpaw” value [3, 6] of the same molecule?
The value was “dose-dependent relief of tactile allodynia”.

And the durations of action [3, 6]?
The durations of action was 1.5 to 3 h.

What about the “onset of anti-allodynia in the ipsilateral hindpaw” value [3, 6] of the same molecule?
The value was “rapid onset”.

What about the “time of peak responses post-dosing” value [3, 6] of the same molecule?
The value was 0.5 to 0.75 h.

And the “anti-allodynia (relief of tactile allodynia) in the ipsilateral hindpaw” value ([3]; CCI-rats, sodium salt, i.p. bolus 0.003 to 10 mg/kg, listed as L-161,638, Sodium Salt)?
Its value is “dose-dependent anti-allodynia”.

For `COc1ccc(Cn2cnc3c2C[C@@H](C(=O)O)N(C(=O)C(c2ccccc2)c2ccccc2)C3)cc1C` [PD-121,981], which “relief of tactile allodynia (summary in discussion)” value [1] is on record?
Its value is “potent relief of tactile allodynia”.

And the duration of action ([1]; STZ-diabetic rats, 0.1 μg/kg, irrespective of dosing route (oral or i.p.))?
The duration of action was “exceeded 3 h”.

What about the onset of action [1, 7] of the same molecule?
The onset of action was “rapid onset of action”.

And the “relief of tactile allodynia” value [1, 7]?
The value was “dose-dependent relief of tactile allodynia”.

And the “time of peak anti-allodynia post-dosing” value [1, 7]?
Its value is 0.5 to 1.0 h.

What about the duration of action ([1]; STZ-diabetic rats, i.p. doses in the range 0.03-3.0 μg/kg) of the same molecule?
The duration of action was greater than 3 h.

What about the “reversal of tactile allodynia in the hindpaws” value ([1]; STZ-diabetic rats) of the same molecule?
Its value is “fully reversed”.

What about the “extent and duration of the anti-allodynic response, oral compared with i.p. route” value ([1]; STZ-diabetic rats, oral bolus 0.1 μg/kg vs same dose i.p.) of the same molecule?
Its value is “similar”.

What about the “onset of anti-allodynia (summary in discussion)” value ([1]; STZ-diabetic rats) of the same molecule?
The value was “relatively rapid onset”.

What about the “extent and duration of the anti-allodynic response, oral compared with i.p. route” value [4] of the same molecule?
The value was “similar”.

What about the “antinociception” value ([2]; i.p. doses up to 3 mg/kg) of the same molecule?
Its value is “insignificant antinociception”.

And the “doses required to produce significant relief of tactile allodynia in CCI-rats compared with STZ-diabetic rats” value [3]?
The value was “considerably larger doses”.

And the duration of action ([3]; CCI-rats, 1 mg/kg, irrespective of dosing route (oral or i.p.))?
The duration of action was 3 h.

And the “anti-allodynia (relief of tactile allodynia) in the ipsilateral hindpaw” value [3, 8]?
Its value is “dose-dependent anti-allodynia; also recorded: dose-dependent relief of tactile allodynia”.

And the durations of action [3, 8]?
Its durations of action is 2 to 3 h.

What about the “onset of anti-allodynia in the ipsilateral hindpaw” value [3, 8] of the same molecule?
The value was “rapid onset”.

And the “time of peak anti-allodynia in the ipsilateral hindpaw post-dosing” value [3, 8]?
The value was 0.5 to 0.75 h and 0.5 to 1.0 h.

`Cc1cc(Cn2cnc3c2C[C@@H](C(=O)O)N(C(=O)C(c2ccccc2)c2ccccc2)C3)ccc1N(C)C` [PD-123,319] was tested. Which “relief of tactile allodynia” value ([1]; STZ-diabetic rats (8-wks after STZ), single bolus i.p. 0.3-3.0 mg/kg, n=4) did it give?
The value was “dose-dependent relief of tactile allodynia”.

What about the “antinociception” value ([2]; single bolus i.p. 1-10 mg/kg, n=3-4) of the same molecule?
Its value is “antinociception in the contralateral hindpaw”.

And the “antinociception” value ([2]; single bolus i.v. 0.1-0.3 mg/kg, n=2)?
The value was “antinociception in the contralateral hindpaw”.

And the “relief of tactile allodynia in the ipsilateral (injured) hindpaw” value ([3]; CCI-rats, single bolus i.p. 1-10 mg/kg, n=3-4)?
The value was “dose-dependent (A) relief of tactile allodynia”.

What about the “relief of tactile allodynia in the ipsilateral (injured) hindpaw” value ([3]; CCI-rats, single bolus i.v. 0.1-0.3 mg/kg, n=2) of the same molecule?
The value was “dose-dependent (A) relief of tactile allodynia”.
